PubChem BioAssay AID1259407 (Chemical Carcinogenesis Research Information System (CCRIS), 2018)
Activity calls are given as the source filed them. No rule for the calls is given here.

System: CCRIS mutagenicity, Ames/micronucleus/aberration tests
Assay: CCRIS mutagenicity studies
Conditions: Test System: AMES SALMONELLA TYPHIMURIUM

Measured: mutagenic call

CCCCCCCCCCCCC/C([O-])=N/[N+](C)(C)CC(C)O (centres undefined)
inactive: Strain/Indicator: TA97, Metabolic Activation: HAMSTER, LIVER, S-9, AROCLOR 1254 (10 OR 30%), Method: PREINCUBATION inactive; negative | Strain/Indicator: TA97, Metabolic Activation: NONE, Method: PREINCUBATION inactive; negative | Strain/Indicator: TA97, Metabolic Activation: RAT, LIVER, S-9, AROCLOR 1254 (10 OR 30%), Method: PREINCUBATION inactive; negative | Strain/Indicator: TA98, Metabolic Activation: HAMSTER, LIVER, S-9, AROCLOR 1254 (10%), Method: PREINCUBATION inactive; negative | Strain/Indicator: TA98, Metabolic Activation: HAMSTER, LIVER, S-9, AROCLOR 1254 (30%), Method: PREINCUBATION inactive; negative | Strain/Indicator: TA98, Metabolic Activation: NONE, Method: PREINCUBATION inactive; negative | Strain/Indicator: TA98, Metabolic Activation: RAT, LIVER, S-9, AROCLOR 1254 (10%), Method: PREINCUBATION inactive; negative | Strain/Indicator: TA98, Metabolic Activation: RAT, LIVER, S-9, AROCLOR 1254 (30%), Method: PREINCUBATION inactive; negative | Strain/Indicator: TA100, Metabolic Activation: HAMSTER, LIVER, AROCLOR 1254 (10%), Method: PREINCUBATION inactive; negative | Strain/Indicator: TA100, Metabolic Activation: HAMSTER, LIVER, S-9, AROCLOR 1254 (30%), Method: PREINCUBATION inactive; negative | Strain/Indicator: TA100, Metabolic Activation: NONE, Method: PREINCUBATION inactive; negative | Strain/Indicator: TA100, Metabolic Activation: RAT, LIVER, S-9, AROCLOR 1254 (10%), Method: PREINCUBATION inactive; negative | Strain/Indicator: TA100, Metabolic Activation: RAT, LIVER, S-9, AROCLOR 1254 (30%), Method: PREINCUBATION inactive; negative | Strain/Indicator: TA1535, Metabolic Activation: HAMSTER, LIVER, S-9, AROCLOR 1254 (10 OR 30%), Method: PREINCUBATION inactive; negative | Strain/Indicator: TA1535, Metabolic Activation: NONE, Method: PREINCUBATION inactive; negative | Strain/Indicator: TA1535, Metabolic Activation: RAT, LIVER, S-9, AROCLOR 1254 (10 OR 30%), Method: PREINCUBATION inactive; negative | Strain/Indicator: TA1537, Metabolic Activation: HAMSTER, LIVER, S-9, AROCLOR 1254 (10 OR 30%), Method: PREINCUBATION inactive; negative | Strain/Indicator: TA1537, Metabolic Activation: NONE, Method: PREINCUBATION inactive; negative | Strain/Indicator: TA1537, Metabolic Activation: RAT, LIVER, S-9, AROCLOR 1254 (10 OR 30%), Method: PREINCUBATION inactive; negative

Cc1c(C)c(N)c(C)c(C)c1N
inactive: Strain/Indicator: TA98, Metabolic Activation: NONE, Method: STANDARD PLATE inactive; negative | Strain/Indicator: TA98, Metabolic Activation: RAT, LIVER, S-9, AROCLOR 1254, Method: STANDARD PLATE inactive; negative | Strain/Indicator: TA100, Metabolic Activation: NONE, Method: STANDARD PLATE inactive; negative | Strain/Indicator: TA100, Metabolic Activation: RAT, LIVER, S-9, AROCLOR 1254, Method: STANDARD PLATE inactive; negative | Strain/Indicator: TA1535, Metabolic Activation: NONE, Method: STANDARD PLATE inactive; negative | Strain/Indicator: TA1535, Metabolic Activation: RAT, LIVER, S-9, AROCLOR 1254, Method: STANDARD PLATE inactive; negative | Strain/Indicator: TA1537, Metabolic Activation: NONE, Method: STANDARD PLATE inactive; negative | Strain/Indicator: TA1537, Metabolic Activation: RAT, LIVER, S-9, AROCLOR 1254, Method: STANDARD PLATE inactive; negative | Strain/Indicator: TA1538, Metabolic Activation: NONE, Method: STANDARD PLATE inactive; negative | Strain/Indicator: TA1538, Metabolic Activation: RAT, LIVER, S-9, AROCLOR 1254, Method: STANDARD PLATE inactive; negative
